System: 958667-338-R-J2-PDC tumor spheroids viability
Assay: Anticancer human tumor 958667-338-R-J2-PDC patient-derived colon adenocarcinoma cell line growth inhibition [PI3K]
Details: spheroids with HUVEC and MSC; for IC50: curve of first compound; for viability, T/C: stronger effect = lower value
In short: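 Tumor cells were combined with HUVEC and MSCs into spheroids, then dosed with PI3K-inhibitor combinations over half-log ranges capped near clinical Cmax or 10 microM.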
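Note: spheroids exposed to compounds for seven days before readout.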

CNC(=O)c1ccc(N2C(=S)N(c3ccc(C#N)c(C(F)(F)F)c3)C(=O)C2(C)C)cc1F + Cc1nc(NC(=O)N2CCCC2C(N)=O)sc1-c1ccnc(C(C)(C)C(F)(F)F)c1
IC50 (second compound 0.0316 µM): > 10000 nM
IC50 (second compound 0.1 µM): > 10000 nM
IC50 (second compound 0.316 µM): > 10000 nM
IC50 (second compound 1 µM): > 10000 nM
IC50 (second compound 3.16 µM): > 10000 nM
IC50 (second compound 10 µM): > 10000 nM
viability, T/C (second compound 0.0316 µM, first compound 0.0316 µM): 109%
viability, T/C (second compound 0.0316 µM, first compound 0.1 µM): 94.6%
viability, T/C (second compound 0.0316 µM, first compound 0.316 µM): 93.8%
viability, T/C (second compound 0.0316 µM, first compound 1 µM): 131%
viability, T/C (second compound 0.0316 µM, first compound 3.16 µM): 101%
viability, T/C (second compound 0.0316 µM, first compound 10 µM): 90.5%
viability, T/C (second compound 0.1 µM, first compound 0.0316 µM): 105%
viability, T/C (second compound 0.1 µM, first compound 0.1 µM): 112%
viability, T/C (second compound 0.1 µM, first compound 0.316 µM): 103%
viability, T/C (second compound 0.1 µM, first compound 1 µM): 91.9%
viability, T/C (second compound 0.1 µM, first compound 3.16 µM): 134%
viability, T/C (second compound 0.1 µM, first compound 10 µM): 93.2%
viability, T/C (second compound 0.316 µM, first compound 0.0316 µM): 78.9%
viability, T/C (second compound 0.316 µM, first compound 0.1 µM): 102%
viability, T/C (second compound 0.316 µM, first compound 0.316 µM): 93.2%
viability, T/C (second compound 0.316 µM, first compound 1 µM): 76.4%
viability, T/C (second compound 0.316 µM, first compound 3.16 µM): 98%
viability, T/C (second compound 0.316 µM, first compound 10 µM): 93.6%
viability, T/C (second compound 1 µM, first compound 0.0316 µM): 74.5%
viability, T/C (second compound 1 µM, first compound 0.1 µM): 71.2%
viability, T/C (second compound 1 µM, first compound 0.316 µM): 88%
viability, T/C (second compound 1 µM, first compound 1 µM): 70.8%
viability, T/C (second compound 1 µM, first compound 3.16 µM): 97.7%
viability, T/C (second compound 1 µM, first compound 10 µM): 82.4%
viability, T/C (second compound 3.16 µM, first compound 0.0316 µM): 76.9%
viability, T/C (second compound 3.16 µM, first compound 0.1 µM): 69%
viability, T/C (second compound 3.16 µM, first compound 0.316 µM): 64.3%
viability, T/C (second compound 3.16 µM, first compound 1 µM): 78.5%
viability, T/C (second compound 3.16 µM, first compound 3.16 µM): 72.3%
viability, T/C (second compound 3.16 µM, first compound 10 µM): 65.2%
viability, T/C (second compound 10 µM, first compound 0.0316 µM): 65.2%
viability, T/C (second compound 10 µM, first compound 0.1 µM): 67.3%
viability, T/C (second compound 10 µM, first compound 0.316 µM): 58.6%
viability, T/C (second compound 10 µM, first compound 1 µM): 62.1%
viability, T/C (second compound 10 µM, first compound 3.16 µM): 60.9%
viability, T/C (second compound 10 µM, first compound 10 µM): 46.9%

Cn1cnc2c(F)c(Nc3ccc(Br)cc3Cl)c(C(=O)NOCCO)cc21 + Cc1nc(NC(=O)N2CCCC2C(N)=O)sc1-c1ccnc(C(C)(C)C(F)(F)F)c1
IC50 (second compound 0.0316 µM): 413 nM
IC50 (second compound 0.1 µM): 328 nM
IC50 (second compound 0.316 µM): 108 nM
IC50 (second compound 1 µM): 58.5 nM
IC50 (second compound 3.16 µM): 66 nM
IC50 (second compound 10 µM): 14.2 nM
viability, T/C (second compound 0.0316 µM, first compound 0.00949 µM): 99.2%
viability, T/C (second compound 0.0316 µM, first compound 0.03 µM): 81.9%
viability, T/C (second compound 0.0316 µM, first compound 0.0949 µM): 73.6%
viability, T/C (second compound 0.0316 µM, first compound 0.3 µM): 56.9%
viability, T/C (second compound 0.0316 µM, first compound 0.949 µM): 35.1%
viability, T/C (second compound 0.0316 µM, first compound 3 µM): 15.8%
viability, T/C (second compound 0.1 µM, first compound 0.00949 µM): 96.1%
viability, T/C (second compound 0.1 µM, first compound 0.03 µM): 95.3%
viability, T/C (second compound 0.1 µM, first compound 0.0949 µM): 60.3%
viability, T/C (second compound 0.1 µM, first compound 0.3 µM): 52.3%
viability, T/C (second compound 0.1 µM, first compound 0.949 µM): 36.4%
viability, T/C (second compound 0.1 µM, first compound 3 µM): 12.7%
viability, T/C (second compound 0.316 µM, first compound 0.00949 µM): 94.8%
viability, T/C (second compound 0.316 µM, first compound 0.03 µM): 69%
viability, T/C (second compound 0.316 µM, first compound 0.0949 µM): 52.7%
viability, T/C (second compound 0.316 µM, first compound 0.3 µM): 35.5%
viability, T/C (second compound 0.316 µM, first compound 0.949 µM): 21.9%
viability, T/C (second compound 0.316 µM, first compound 3 µM): 11.9%
viability, T/C (second compound 1 µM, first compound 0.00949 µM): 80%
viability, T/C (second compound 1 µM, first compound 0.03 µM): 63%
viability, T/C (second compound 1 µM, first compound 0.0949 µM): 40.3%
viability, T/C (second compound 1 µM, first compound 0.3 µM): 24%
viability, T/C (second compound 1 µM, first compound 0.949 µM): 14.7%
viability, T/C (second compound 1 µM, first compound 3 µM): 7.55%
viability, T/C (second compound 3.16 µM, first compound 0.00949 µM): 50.3%
viability, T/C (second compound 3.16 µM, first compound 0.03 µM): 63.5%
viability, T/C (second compound 3.16 µM, first compound 0.0949 µM): 46.2%
viability, T/C (second compound 3.16 µM, first compound 0.3 µM): 16.4%
viability, T/C (second compound 3.16 µM, first compound 0.949 µM): 11%
viability, T/C (second compound 3.16 µM, first compound 3 µM): 3.01%
viability, T/C (second compound 10 µM, first compound 0.00949 µM): 56.8%
viability, T/C (second compound 10 µM, first compound 0.03 µM): 37.7%
viability, T/C (second compound 10 µM, first compound 0.0949 µM): 12.8%
viability, T/C (second compound 10 µM, first compound 0.3 µM): 9.46%
viability, T/C (second compound 10 µM, first compound 0.949 µM): 5.65%
viability, T/C (second compound 10 µM, first compound 3 µM): 1.13%

— PubChem BioAssay AID1963963 (Molecular Pharmacology Branch, DTP, NCI, 2024)
